Results from ChEMBL document CHEMBL2424531, “Molecular docking- and genetic algorithm-based approaches to produce robust 3D-QSAR models” (Med Chem Res, 2013).

Experiment: Inhibition of glycogen phosphorylase b (unknown origin)
Parameters: species or system Homo sapiens

Compound: NC[C@@H]1O[C@H](CO)[C@@H](O)[C@H](O)[C@H]1O
- Ki: 16800 µM

Compound: NCC[C@@H]1O[C@H](CO)[C@@H](O)[C@H](O)[C@H]1O
- Ki: 4500 µM

Compound: NC[C@H]1O[C@H](CO)[C@@H](O)[C@H](O)[C@H]1O
- Ki: 34500 µM

Compound: O=C(CBr)N[C@@H]1O[C@H](CO)[C@@H](O)[C@H](O)[C@H]1O
- Ki: 44 µM

Compound: CS(=O)(=O)OC[C@]1(O)O[C@H](CO)[C@@H](O)[C@H](O)[C@H]1O
- Ki: 3700 µM

Compound: [N-]=[N+]=NC[C@]1(O)O[C@H](CO)[C@@H](O)[C@H](O)[C@H]1O
- Ki: 7400 µM

Compound: CO[C@@H]1O[C@H](CO)[C@@H](O)[C@H](O)[C@H]1O
- Ki: 24700 µM

Compound: O=C(NCC(F)(F)F)[C@@H]1O[C@H](CO)[C@@H](O)[C@H](O)[C@H]1O
- Ki: 8100 µM

Compound: O=C(O)[C@H]1O[C@H](CO)[C@@H](O)[C@H](O)[C@H]1O
- Ki: 15200 µM

Compound: OC[C@H]1O[C@@H](S)[C@H](O)[C@@H](O)[C@@H]1O
- Ki: 1000 µM

Compound: COC(=O)N[C@]1(C(N)=O)O[C@H](CO)[C@@H](O)[C@H](O)[C@H]1O
- Ki: 16 µM

Compound: N#CC[C@@H]1O[C@H](CO)[C@@H](O)[C@H](O)[C@H]1O
- Ki: 9000 µM

Compound: CS(=O)(=O)OC[C@@H]1O[C@H](CO)[C@@H](O)[C@H](O)[C@H]1O
- Ki: 4800 µM

Compound: CNC(=O)[C@@H]1O[C@H](CO)[C@@H](O)[C@H](O)[C@H]1O
- Ki: 160 µM

Compound: COC(=O)[C@@H]1O[C@H](CO)[C@@H](O)[C@H](O)[C@H]1O
- Ki: 2800 µM

Compound: NNC(=O)[C@H]1O[C@H](CO)[C@@H](O)[C@H](O)[C@H]1O
- Ki: 3000 µM

Compound: NC(=O)[C@@H]1O[C@H](CO)[C@@H](O)[C@H](O)[C@H]1O
- Ki: 440 µM

Compound: OC[C@H]1S[C@H](O)[C@H](O)[C@@H](O)[C@@H]1O
- Ki: 2000 µM

Compound: O=C(NCCO)[C@H]1O[C@H](CO)[C@@H](O)[C@H](O)[C@H]1O
- Ki: 16900 µM

Compound: COC(=O)N[C@@H]1O[C@H](CO)[C@@H](O)[C@H](O)[C@H]1O
- Ki: 85 µM

Compound: O=C(Nc1ccc(O)cc1)[C@H]1O[C@H](CO)[C@@H](O)[C@H](O)[C@H]1O
- Ki: 5600 µM

Compound: OC[C@H]1O[C@@](O)(CO)[C@H](O)[C@@H](O)[C@@H]1O
- Ki: 15800 µM

Compound: NCC(=O)N[C@@H]1O[C@H](CO)[C@@H](O)[C@H](O)[C@H]1O
- Ki: 370 µM

Compound: C[C@H]1O[C@H](CO)[C@@H](O)[C@H](O)[C@H]1O
- Ki: 53100 µM

Compound: COC(=O)[C@H]1O[C@H](CO)[C@@H](O)[C@H](O)[C@H]1O
- Ki: 24200 µM

Compound: NC(=O)[C@H]1O[C@H](CO)[C@@H](O)[C@H](O)[C@H]1O
- Ki: 370 µM

Compound: N#CC[C@]1(O)O[C@H](CO)[C@@H](O)[C@H](O)[C@H]1O
- Ki: 7600 µM

Compound: O=C(Nc1ccc(O)cc1)[C@@H]1O[C@H](CO)[C@@H](O)[C@H](O)[C@H]1O
- Ki: 4400 µM

Compound: O=C(NCCO)[C@@H]1O[C@H](CO)[C@@H](O)[C@H](O)[C@H]1O
- Ki: 2600 µM

Compound: NN1C(=O)NC2(O[C@H](CO)[C@@H](O)[C@H](O)[C@H]2O)C1=O (stereo partly specified)
- Ki: 146 µM

Compound: O=C1CNC(=O)C2(N1)O[C@H](CO)[C@@H](O)[C@H](O)[C@H]2O (stereo partly specified)
- Ki: 59.7 µM

Compound: NNC(=O)[C@@H]1O[C@H](CO)[C@@H](O)[C@H](O)[C@H]1O
- Ki: 400 µM

Compound: O=C(Nc1ccccc1)[C@@H]1O[C@H](CO)[C@@H](O)[C@H](O)[C@H]1O
- Ki: 5400 µM

Compound: O=C(Nc1ccccc1)[C@H]1O[C@H](CO)[C@@H](O)[C@H](O)[C@H]1O
- Ki: 12600 µM

Compound: O=C(NC1CC1)[C@@H]1O[C@H](CO)[C@@H](O)[C@H](O)[C@H]1O
- Ki: 1300 µM

Compound: CNC(=O)[C@H]1O[C@H](CO)[C@@H](O)[C@H](O)[C@H]1O
- Ki: 36700 µM

Compound: O=C(NCc1ccc(F)cc1F)[C@H]1O[C@H](CO)[C@@H](O)[C@H](O)[C@H]1O
- Ki: 27200 µM

Compound: OC[C@H]1O[C@@H](Oc2cc3ccccc3[nH]2)[C@H](O)[C@@H](O)[C@@H]1O
- Ki: 2600 µM

Compound: OC[C@H]1O[C@H](CO)[C@@H](O)[C@H](O)[C@H]1O
- Ki: 1500 µM

Compound: [N-]=[N+]=NC[C@H]1O[C@H](CO)[C@@H](O)[C@H](O)[C@H]1O
- Ki: 22400 µM

Compound: O=C(CCl)NC1O[C@H](CO)[C@@H](O)[C@H](O)[C@H]1O (single isomer, unassigned)
- Ki: 45 µM

Compound: NC(=O)CSC1O[C@H](CO)[C@@H](O)[C@H](O)[C@H]1O (single isomer, unassigned)
- Ki: 21100 µM

Compound: O=C(CSC1O[C@H](CO)[C@@H](O)[C@H](O)[C@H]1O)Nc1ccc(F)cc1F (single isomer, unassigned)
- Ki: 18900 µM

Compound: O=C(CSC1O[C@H](CO)[C@@H](O)[C@H](O)[C@H]1O)Nc1ccccc1 (single isomer, unassigned)
- Ki: 3600 µM

Compound: CNNC(=O)C1O[C@H](CO)[C@@H](O)[C@H](O)[C@H]1O (single isomer, unassigned)
- Ki: 1800 µM

Compound: NC(=O)NC1O[C@H](CO)[C@@H](O)[C@H](O)[C@H]1O (single isomer, unassigned)
- Ki: 140 µM

Compound: CCCC(=O)NC1O[C@H](CO)[C@@H](O)[C@H](O)[C@H]1O (single isomer, unassigned)
- Ki: 94 µM

Compound: O=C(NC1O[C@H](CO)[C@@H](O)[C@H](O)[C@H]1O)c1ccccc1 (single isomer, unassigned)
- Ki: 81 µM

Compound: CC(=O)NCC(=O)NC1O[C@H](CO)[C@@H](O)[C@H](O)[C@H]1O (single isomer, unassigned)
- Ki: 990 µM

Compound: CCC(=O)NC1O[C@H](CO)[C@@H](O)[C@H](O)[C@H]1O (single isomer, unassigned)
- Ki: 39 µM

Compound: CC(=O)NC1O[C@H](CO)[C@@H](O)[C@H](O)[C@H]1O (single isomer, unassigned)
- Ki: 32 µM
